Laboratory results: PubChem BioAssay AID1996
In brackets after ≈: the same amount, converted by molar mass.

Details: buffer; pH 7.4; 200.0 µM

Structure (SMILES) | solubility kinetic
O=C(Nc1ccc(Cl)cn1)c1cccc(OCc2ccccc2)c1 | 0.7 µg/mL (≈ 2.07 µM)
CC1CCc2c(sc(NC(=O)c3cccs3)c2C(=O)O)C1 (configuration not stated) | 47.4 µg/mL (≈ 147 µM)
Cc1nc(-c2cccc(NC(=O)c3ccc(Br)o3)c2)cs1 | 17.2 µg/mL (≈ 47.4 µM)
CCn1c(SCc2ccc(OC)c(F)c2)nc2ccccc2c1=O | < 0.4 µg/mL
CC(=O)Nc1nc(CC(C)C)cc(-c2ccccc2)c1C#N | > 44 µg/mL
COc1ccccc1CNC(=O)c1cc2ccccc2o1 | 10.1 µg/mL (≈ 35.9 µM)
COc1ccc(C(=O)N2CCN(C(=O)C3CCCO3)CC2)cc1[N+](=O)[O-] (configuration not stated) | > 54.5 µg/mL
CCOC(=O)c1cnc2c(ccc3ccccc32)c1NCCCN(C)C | 46.1 µg/mL (≈ 131 µM)
O=C(/C=C/c1cc(Br)ccc1F)Nc1cccnc1 | 2 µg/mL (≈ 6.23 µM)
COc1cc2ccccc2cc1C(=O)N1CCCC1 | > 38.3 µg/mL
CC(Sc1ncnc2sccc12)C(=O)Nc1ccc(S(N)(=O)=O)cc1 (configuration not stated) | 8.7 µg/mL (≈ 22.1 µM)
O=C(Cc1ccccc1)Nc1ccc2oc(=O)ccc2c1 | 39.9 µg/mL (≈ 143 µM)
COC(=O)c1ccc(NC(=O)c2ccc3c(c2)C(=O)N(C)C3=O)cc1 | < 0.4 µg/mL
Cc1cccc(C)c1OCC(=O)N1CCc2ccccc2C1 | 34.5 µg/mL (≈ 117 µM)
Nc1cc(N)nc(SCC(=O)NNC(=O)Cc2ccccc2)n1 | > 49.9 µg/mL
CN(Cc1ccccn1)Cc1nc(-c2ccc(Cl)cc2)no1 | 35.5 µg/mL (≈ 113 µM)
CC(=O)c1ccc(Nc2c([N+](=O)[O-])ccc3nonc23)cc1 | < 0.2 µg/mL
COn1c(-c2ccc(C)cc2)nc2ncccc21 | > 35.9 µg/mL
COC(=O)c1ccccc1N=Nc1c(N)n[nH]c1N | > 39 µg/mL
COc1ccccc1C(=O)C1CCCN(C(=O)C2CCCC2)C1 (configuration not stated) | > 47.3 µg/mL
COc1ccc2oc(C(=O)N3CCN(c4ncccn4)CC3)c(C)c2c1 | 4.8 µg/mL (≈ 13.6 µM)
O=C(CNc1ccccc1)Nc1cccc2ccccc12 | 3.4 µg/mL (≈ 12.3 µM)
Cc1ccc(Nc2cc(C)c3ccc(O)cc3n2)cc1C.Cl | 11.1 µg/mL
Clc1ccc(OCCn2cnc(Cl)c2Cl)cc1 | 21.1 µg/mL (≈ 72.4 µM)

Structure (SMILES) | solubility kinetic
CN(Cc1ccc(Cl)cc1)C(=O)c1ccc2ccccc2n1 | > 46.6 µg/mL
O=C(O/N=C/c1ccc2c(c1)OCO2)c1ccc([N+](=O)[O-])cc1 | 0.9 µg/mL (≈ 2.86 µM)
O=C(Nc1c[nH]c(=O)[nH]c1=O)c1cccc(F)c1 | 12.2 µg/mL (≈ 49 µM)
CC(C)=CC(=O)OCC(=O)NC1CCCc2ccccc21 (configuration not stated) | 25 µg/mL (≈ 87 µM)
O=C(c1cc2ccccc2cc1O)N1CCN(c2ccccn2)CC1 | 32.9 µg/mL (≈ 98.7 µM)
COC(=O)C1(C(C[N+](=O)[O-])c2ccc(C)cc2)C(=O)NCC1c1ccco1 (configuration not stated) | > 55.9 µg/mL
Cc1c(Cl)cccc1NC(=S)NCC(O)c1ccccc1 (configuration not stated) | 46.7 µg/mL (≈ 146 µM)
O=C(NCCO)C(=O)Nc1cc2c3c(c1)CC(=O)N3CCC2 | > 45.5 µg/mL
CC(=O)OC(CC(=O)O)C[N+](C)(C)C.[Cl-] (configuration not stated) | > 36 µg/mL
Cc1cc(F)ccc1NC(=O)c1cnccn1 | 29.7 µg/mL (≈ 128 µM)
O=C(O)C1CCC(CNS(=O)(=O)c2ccc(Cl)cc2)CC1 (configuration not stated) | 43 µg/mL (≈ 130 µM)
COc1ccccc1/C=C1\C(=O)NC(=S)N(c2ccccc2)C1=O | > 50.8 µg/mL
COC(=O)c1ccccc1N=Cc1c(O)[nH]c(=O)[nH]c1=O | 8.4 µg/mL (≈ 29 µM)
CC(C)(C)C(=O)OCc1nc(-c2ccc(F)cc2)cs1 | < 0.6 µg/mL
N#Cc1ccccc1OCC(=O)NC(=O)NC1CCS(=O)(=O)C1 (configuration not stated) | > 50.6 µg/mL
COC(=O)C1(C(C[N+](=O)[O-])c2ccco2)C(=O)NCC1c1ccccc1 (configuration not stated) | 11.1 µg/mL (≈ 31 µM)
O=[N+]([O-])c1ccc(CNc2cccc(F)c2)s1 | 17.6 µg/mL (≈ 69.8 µM)
O=C(O)c1cc(NC(=O)c2ccco2)cc(NC(=O)c2ccco2)c1 | 44.4 µg/mL (≈ 130 µM)
O=C(COC(=O)c1cc(=O)[nH]c2ccccc12)c1ccccc1 | 8.8 µg/mL (≈ 28.6 µM)
CCc1noc(C)c1C(=O)OCC(=O)N1CCc2ccccc21 | 4.6 µg/mL (≈ 14.6 µM)
Clc1ccc2oc(SCc3cccnc3)nc2c1 | 3.5 µg/mL (≈ 12.6 µM)
Cc1cnc(C(=O)OCC(=O)c2ccc(-c3ccccc3)cc2)cn1 | 7.7 µg/mL (≈ 23.2 µM)
O=C(NCC(=O)N1CCN(Cc2ccccc2)CC1)c1cccs1 | > 51.5 µg/mL
CCOC(=O)c1c(C=O)c2sc(C)cc2n1C | 1.5 µg/mL (≈ 5.97 µM)

Structure (SMILES) | solubility kinetic
O=C(CNC(=O)c1ccc(Cl)cc1)N/N=C/c1cccnc1 | > 47.5 µg/mL
O=C(NC1CCCCC1)c1cc([N+](=O)[O-])ccc1N1CCCC1 | 3.3 µg/mL (≈ 10.4 µM)
CCOC(=O)CC(NC(=O)c1ccccc1F)c1ccc(C)cc1 (configuration not stated) | 34.5 µg/mL (≈ 105 µM)
CCOC(=O)C1CCN(C/C=C/c2ccccc2[N+](=O)[O-])CC1 | 39.3 µg/mL (≈ 123 µM)
CCN(C(=O)COC(=O)/C(C#N)=C/c1ccc(N(C)C)cc1)C1CCS(=O)(=O)C1 (configuration not stated) | 4.8 µg/mL (≈ 11.4 µM)
CC1CN(C(=O)COC(=O)c2cnc(Cl)c(Cl)c2)CC(C)O1 (configuration not stated) | > 52.1 µg/mL
CCCCC(=O)Nc1ccccc1C(C)C | 23.3 µg/mL (≈ 106 µM)
O=C(COC(=O)c1cc(S(=O)(=O)N2CCOCC2)ccc1F)Nc1ccc2c(c1)OCO2 | 54.8 µg/mL (≈ 117 µM)
Cc1ccccc1NC(=O)C(NC1CCCCC1)C(C)C (configuration not stated) | 6.7 µg/mL (≈ 23.2 µM)
O=C(CN1C(=O)NC(c2ccccc2)(c2ccccc2)C1=O)N1CCCCC1 | 6.2 µg/mL (≈ 16.4 µM)
CC(=O)c1c(C)[nH]c(C(=O)COC(=O)CCNS(=O)(=O)c2ccc(C)c(C)c2)c1C | 11 µg/mL (≈ 25.3 µM)
CC1CCCN(C(=O)CNC(=O)c2ccco2)C1 (configuration not stated) | > 37.5 µg/mL
NC(CO)(CO)CO.O=C(c1ccccc1)c1ccc2n1CCC2C(=O)O (configuration not stated) | > 56.5 µg/mL
Cc1ccc(S(=O)(=O)NC(CC(=O)O)c2ccc(F)cc2)cc1 (configuration not stated) | 34.8 µg/mL (≈ 103 µM)
C#CC1(OC(=O)c2ccccc2)CC(C)N(C)CC1C.Cl (configuration not stated) | > 46.2 µg/mL
O=C(Nc1nccs1)c1ccc([N+](=O)[O-])cc1Cl | 3.8 µg/mL (≈ 13.4 µM)
COc1ccc(C=O)cc1Cn1ccnc1.Cl | > 37.9 µg/mL
CCNS(=O)(=O)c1ccc(CCC(=O)N2CCCC2)cc1 | > 46.6 µg/mL
COc1ccc(CN2CCCCCC2)cc1 | 26.2 µg/mL (≈ 119 µM)
CC(=O)c1c(C)nc(-c2ccc(OCC(=O)Nc3ccccc3)cc2)n1O | 51.3 µg/mL (≈ 140 µM)
O=C(Nc1ccc2c(c1)OCO2)c1cc(Cl)ccn1 | 6.1 µg/mL (≈ 22 µM)
CCOC(=O)C1=C(C)NC(=O)NC1c1ccc([N+](=O)[O-])o1 (configuration not stated) | 42.7 µg/mL (≈ 145 µM)
Cc1cccc(Nc2nc(N)c([N+](=O)[O-])c(NCCO)n2)c1 | 19.8 µg/mL (≈ 65.1 µM)
CC1CCCN(CCC(=O)Nc2ccc(F)c(F)c2)C1 (configuration not stated) | > 42.3 µg/mL

Structure (SMILES) | solubility kinetic
Cc1cccc(NC(=S)N2CCCN(c3ncccc3[N+](=O)[O-])CC2)c1 | 39.4 µg/mL (≈ 106 µM)
N#CC(=C=[N-])c1nc2ccccc2nc1-[n+]1cccc(NC(=O)c2cccs2)c1 | 1.5 µg/mL (≈ 3.78 µM)
CCN(CC)CC(=O)Nc1sc(C)cc1C(=O)c1ccc(C)cc1 | 0.4 µg/mL (≈ 1.16 µM)
COc1cc(SC)ccc1C(=O)OCC(=O)NC(=O)NC(C)C | 10.9 µg/mL (≈ 32 µM)
CN(C(=O)c1c[nH]c(=O)cc1C(F)(F)F)c1ccc(Cl)cc1 | 45.9 µg/mL (≈ 139 µM)
Clc1cccc(CNc2nc(-c3cccnc3)nc3ccccc23)c1 | 0.5 µg/mL (≈ 1.44 µM)
CC(NC(=O)Cc1ccc([N+](=O)[O-])cc1)c1ccc2c(c1)OCO2 (configuration not stated) | 7.9 µg/mL (≈ 24.1 µM)
CCNCc1ccc(OCc2cccs2)c(OCC)c1 | > 43.7 µg/mL
Cc1ccc(S(=O)(=O)NCC(C)NC(=O)CN2CCOCC2)cc1 (configuration not stated) | > 53.3 µg/mL
COc1ccccc1/C=C/C(=O)Nc1cccnc1Cl | 2.7 µg/mL (≈ 9.35 µM)
COc1ccccc1/C=C/C(=O)OCC(=O)NC(=O)NC1CCCC1 | 13.8 µg/mL (≈ 39.8 µM)
CCCCN(C1CCS(=O)(=O)C1)S(=O)(=O)c1ccc(C(C)C)cc1 (configuration not stated) | 1.9 µg/mL (≈ 5.09 µM)
CCC(C)(C)NC(=S)Nc1ccccc1C | > 35.5 µg/mL
Cc1ccc(NC(=O)CN2C(=O)CNC2=O)cc1 | > 37.1 µg/mL
CCCCC(Sc1nc(C)c(Cc2ccccc2)c(=O)[nH]1)C(=O)O (configuration not stated) | > 52 µg/mL
C=CCn1c(O)c(C=NC2CCN(Cc3ccccc3)CC2)c(=O)[nH]c1=O | 54.1 µg/mL (≈ 147 µM)
Cc1ccccc1NC(=O)Nc1ccc2c(c1)CCC2 | 0.5 µg/mL (≈ 1.88 µM)
COc1ccc(CCC(=O)NC2CCCCC2)cc1 | > 39.2 µg/mL
Nc1ccc2nc(-c3cccc(-c4nc5ccc(N)cc5[nH]4)n3)[nH]c2c1 | 21.5 µg/mL (≈ 63 µM)
COCCCNC(=O)c1cc2cc3cc(OC)ccc3nc2o1 | > 47.2 µg/mL
COC(=O)CC1C(=O)NCCN1C(=S)Nc1ccccc1Cl (configuration not stated) | > 51.3 µg/mL
COC(=O)C1CCN(C(=O)COC(=O)c2ccc(N3CCCC3=O)cc2)CC1 | > 58.3 µg/mL
O=C(Nc1ccccc1F)c1ccccc1C(=O)Nc1ccccc1F | 32.5 µg/mL (≈ 92.2 µM)
COc1cc(OC)cc(C(=O)NC(C)CCc2ccccc2)c1 (configuration not stated) | 34.2 µg/mL (≈ 109 µM)

Structure (SMILES) | solubility kinetic
CN1C(=O)/C(=C/C=C2\SCCN2C)N(C)C1=S | 8 µg/mL (≈ 29.7 µM)
COc1ccccc1CCNC(=O)c1ccc2nc[nH]c2c1 | > 44.3 µg/mL
CCN(c1ccccc1)S(=O)(=O)c1ccc(Oc2ccccc2C(C)=O)nc1 | 18.6 µg/mL (≈ 46.9 µM)
CCOC(=O)Cc1csc(NC(=O)Nc2ccc(OC(F)(F)F)cc2)n1 | 0.3 µg/mL (≈ 0.771 µM)
Cc1ccc2c(c1)C(=O)C(=O)N2CCCOc1ccccc1 | 2.7 µg/mL (≈ 9.14 µM)
O=C(CS(=O)(=O)c1ccccc1)Nc1cccnc1 | > 41.4 µg/mL
CCOC(=O)Nc1ccc(OC)c([N+](=O)[O-])c1 | > 36 µg/mL
COc1ccc(S(=O)(=O)n2ccnc2C)c(C)c1C | > 42.1 µg/mL
COc1cc(C(=O)N2CCc3ccccc32)cc(OC)c1OC | 40.8 µg/mL (≈ 130 µM)
COc1ccc(CNC(=O)COC(=O)c2ccccn2)cc1 | > 45 µg/mL
CC1CC(C)CN(C(=O)COC(=O)/C=C/c2ccco2)C1 (configuration not stated) | > 43.7 µg/mL
CC1CCc2[nH]c3ccc(C(=O)NCCCOC(C)C)cc3c2C1 (configuration not stated) | > 49.3 µg/mL
COc1cccc(C2CCCN2Cc2nc(-c3cnccn3)no2)c1 (configuration not stated) | 44.9 µg/mL (≈ 133 µM)
COc1cc(OC)c(C(=O)NCc2ccco2)cc1OC | > 43.7 µg/mL
CCOc1ccccc1NC(=O)c1ccc2ccccc2c1 | < 0.6 µg/mL
Cc1ccc2cccc(OCCCOc3ccccc3CO)c2n1 | 38.1 µg/mL (≈ 118 µM)
Cc1cccc(C)c1N1CCN(C(=O)Cn2cncn2)CC1 | > 44.9 µg/mL
CCOc1ncccc1C(=O)OCC(=O)NCc1ccccc1 | 45.9 µg/mL (≈ 146 µM)
CC(=O)NC(CC(=O)Nc1ccc(S(=O)(=O)N2CCOCC2)cc1)c1ccccc1 (configuration not stated) | > 64.7 µg/mL
CC1CCN(C(=S)NC(=O)c2cccc([N+](=O)[O-])c2)CC1 | 34.2 µg/mL (≈ 111 µM)
O=C(CCn1c(=O)oc2ccccc21)Nc1ccc(C(=O)O)cc1 | > 48.9 µg/mL
